From patent US10131670B2, “Bicyclic heteroaryl derivatives as CFTR potentiators” (CYSTIC FIBROSIS FOUNDATION THERAPEUTICS, INC., priority 2016, dated 2018)

Assays:
F508del V470 CFTR = F508del V470 CFTR (Homo sapiens, UniProt P13569, DEL508-508); assay: FRT Ion Flux Assay of F508del CFTR Potentiation; type: cell-based; details: FRT cells expressing F508del V470 CFTR and halide-sensitive YFP, forskolin 20 uM, 30 min
Experimental: FRT Ion Flux Assay of F508del CFTR Potentiation
Fischer rat thyroid (FRT) cell lines stably expressing recombinant F508del V470 CFTR and halide-sensitive yellow fluorescent protein (Pedemonte et al., J. Clin. Invest. 115(9) 2564-71 (2005)) were seeded at 25,000 cells/well in 50 uL/well of culture medium into black-walled, clear bottom tissue-culture-treated 384-well plates (Corning, cat. no. 3712). After one day, the cells were pre-incubated at 27° C./5% CO2 for 16-24 hours. The cells were then washed with dPBS and treated with forskolin (20 uM) and test compound for 30 min by addition of 20 uL of compound dilution buffer (dPBS containing forskolin and test compound). Plates were loaded into FLIPR384 fluorescence imaging plate reader (Molecular Devices). After an initial fluorescence reading, iodide buffer (25 uL) (composition (in mM): 137 NaI, 1.5 K2PO4, 8.1 NaH2PO4, 2.7 KCl, 0.5 MgCl2, 1 CaCl2) was added and a second fluorescence reading was made after approximately 21 seconds. Data treatment involved division of the second fluorescence reading by the initial fluorescence reading, then scaling of the resulting normalized endpoint fluorescence with respect to the responses for DMSO (0%) and a positive control potentiator (100%).

CFTR = CFTR (Homo sapiens, UniProt P13569); assay: Ussing Chamber Electrophysiology Assay of CFTR Potentiation in CF Bronchial Epithelial Cells; type: cell-based; details: primary CF hBE cells, short-circuit current, scaled to DMSO (0%) and positive control potentiator (100%)
Description: Ussing Chamber Electrophysiology Assay of CFTR Potentiation in CF Bronchial Epithelial Cells
Primary cystic fibrosis human bronchial epithelial (CF hBE) cells were expanded and cultured according to published methods (Neuberger et al., Ch. 4 of Cystic Fibrosis, Methods in Molecular Biology vol. 741, pp. 39-54 (2011)). Well-differentiated cells (>30 days at air/liquid interface) on Snapwell filters (Corning Costar, cat. no. 3801) were mounted in Ussing chambers (Physiologic Instruments, Inc., San Diego, Calif.). F508del/F508del cultures were assayed at 27° C. and G551D/F508del cells were assayed at 35° C. HEPES buffered physiological saline (composition (in mM): 137 NaCl, 4 KCl, 1 MgCl2, 1.8 CaCl2, 10 HEPES Na) was used in both apical and basolateral chambers. Chambers were bubbled with air to promote mixing and the voltage was clamped to zero. Amiloride (30 uM), forskolin (10 uM), test compound (4 increasing concentrations), and CFTRinh-172 (20 uM) were added sequentially with 20-25 minutes between additions. Short-circuit currents were acquired and analyzed using LabScribe2. Test compound responses were scaled relative to responses for DMSO (0%) and the maximal response of a positive control potentiator (100%).

F508del = F508del (Homo sapiens (Human), UniProt P13569, DEL508-508); details: F508del homozygote patients; cited from earlier work
F508del, sequence (P13569 other isoform, or with tags, fused parts or gaps del F508-F508): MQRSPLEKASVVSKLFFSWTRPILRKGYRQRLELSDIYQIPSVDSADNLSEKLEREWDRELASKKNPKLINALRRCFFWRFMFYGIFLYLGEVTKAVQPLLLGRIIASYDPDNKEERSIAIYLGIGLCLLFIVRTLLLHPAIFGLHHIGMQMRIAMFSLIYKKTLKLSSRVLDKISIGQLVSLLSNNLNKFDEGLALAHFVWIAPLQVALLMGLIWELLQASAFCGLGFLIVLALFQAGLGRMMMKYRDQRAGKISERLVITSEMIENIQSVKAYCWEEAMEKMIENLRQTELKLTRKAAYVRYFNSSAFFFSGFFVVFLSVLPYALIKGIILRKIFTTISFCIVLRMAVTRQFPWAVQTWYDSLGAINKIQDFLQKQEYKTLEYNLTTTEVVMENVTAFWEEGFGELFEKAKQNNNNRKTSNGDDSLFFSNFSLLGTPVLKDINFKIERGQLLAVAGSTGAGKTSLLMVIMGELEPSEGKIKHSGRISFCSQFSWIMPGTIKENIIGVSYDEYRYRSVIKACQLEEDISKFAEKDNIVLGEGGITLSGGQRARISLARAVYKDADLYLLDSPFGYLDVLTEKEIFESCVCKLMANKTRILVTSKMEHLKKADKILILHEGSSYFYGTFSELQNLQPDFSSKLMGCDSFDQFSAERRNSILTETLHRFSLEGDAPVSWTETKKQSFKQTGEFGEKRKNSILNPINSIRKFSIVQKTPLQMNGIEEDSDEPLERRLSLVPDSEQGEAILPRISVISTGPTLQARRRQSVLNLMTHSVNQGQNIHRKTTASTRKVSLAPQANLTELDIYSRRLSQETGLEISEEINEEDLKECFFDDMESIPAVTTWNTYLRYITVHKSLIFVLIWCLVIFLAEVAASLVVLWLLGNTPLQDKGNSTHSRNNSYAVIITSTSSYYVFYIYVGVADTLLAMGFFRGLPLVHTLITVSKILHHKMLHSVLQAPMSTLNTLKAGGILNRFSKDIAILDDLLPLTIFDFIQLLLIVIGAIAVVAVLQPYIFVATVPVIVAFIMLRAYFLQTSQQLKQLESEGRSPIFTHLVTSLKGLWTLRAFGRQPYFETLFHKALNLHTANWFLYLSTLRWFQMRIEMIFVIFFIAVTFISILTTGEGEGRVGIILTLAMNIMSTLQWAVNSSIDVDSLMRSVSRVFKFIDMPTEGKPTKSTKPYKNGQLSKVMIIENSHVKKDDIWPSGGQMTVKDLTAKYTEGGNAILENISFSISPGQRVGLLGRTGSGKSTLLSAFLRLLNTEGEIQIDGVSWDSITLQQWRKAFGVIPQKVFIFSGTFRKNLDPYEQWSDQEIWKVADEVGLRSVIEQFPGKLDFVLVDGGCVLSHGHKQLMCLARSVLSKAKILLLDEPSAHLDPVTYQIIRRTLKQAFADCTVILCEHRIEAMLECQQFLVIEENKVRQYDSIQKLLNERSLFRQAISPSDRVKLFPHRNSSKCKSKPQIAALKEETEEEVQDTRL

G551D = G551D (Homo sapiens, UniProt P13569, G551D); details: G551D patients; cited from earlier work

F508del V470 CFTR, sequence (P13569 with tags, fused parts or gaps DEL508-508): as the sequence (P13569 other isoform, or with tags, fused parts or gaps del F508-F508) above

SMILES	EC50 (F508del V470 CFTR) [nM]	EC50 (CFTR) [nM]	improvement with monotherapy (F508del)	percent predicted FEV1 increased (G551D)
CCC(c1cn(-c2ccc(F)c(F)c2)nn1)c1c(C#N)c(-c2cnc(C(F)(F)F)nc2)c2c(N)ncnn12 (single isomer, unassigned) [Example 9, 4-amino-7-{1-[1-(3,4-difluorophenyl)-1H-1,2,3-triazol-4-yl]propyl}-5-[2-(trifluoromethyl)pyrimidin-5-yl]pyrrolo[2,1-f][1,2,4]triazine-6-carbonitrile]	41.2	28.4		
CCC(c1cn(-c2ccccc2F)nn1)c1cc(-c2cnc(C(F)(F)F)nc2)c2c(N)ncnn12 (single isomer, unassigned) [Example 57, 7-{1-[1-(2-fluorophenyl)-1H-1,2,3-triazol-4-yl]propyl}-5-[2-(trifluoromethyl)pyrimidin-5-yl]pyrrolo[2,1-f][1,2,4]triazin-4-amine]	1.88	2		
CCC(c1cn(-c2ccccc2F)nn1)c1cc(-c2cnc(C(F)(F)F)nc2)c2c(N)ncnn12 (centres unmarked) [Example 82, 7-{1-[1-(2-fluorophenyl)-1H-1,2,3-triazol-4-yl]propyl}-5-[2-(trifluoromethyl)pyrimidin-5-yl]pyrrolo[2,1-f][1,2,4]triazin-4-amine]	5.83	4.93		
N#Cc1c(-c2cnc(C(F)(F)F)nc2)c2c(N)ncnn2c1Cc1cc(-c2ccccc2F)no1 [Example 35, 4-amino-7-{[3-(2-fluorophenyl)-1,2-oxazol-5-yl]methyl}-5-[2-(trifluoromethyl)pyrimidin-5-yl]pyrrolo[2,1-f][1,2,4]triazine-6-carbonitrile]	4.65	4		
N#Cc1c(-c2cnc(C(F)F)nc2)c2c(N)ncnn2c1Cc1cnn(-c2ccccc2F)c1 [Example 31, 4-amino-5-[2-(difluoromethyl)pyrimidin-5-yl]-7-{[1-(2-fluorophenyl)-1H-pyrazol-4-yl]methyl}pyrrolo[2,1-f][1,2,4]triazine-6-carbonitrile]	0.41	1.05		
CC(C)(C)c1cc(C(C)(C)C)c(NC(=O)c2c[nH]c3ccccc3c2=O)cc1O [Kalydeco®, ivacaftor]			did not lead to any appreciable improvement	10-13%
CC(O)(c1cn(-c2ccccc2F)nn1)c1cc(-c2cnc(C(F)(F)F)nc2)c2c(N)ncnn12 (single isomer, unassigned) [Example 67, 1-{4-amino-5-[2-(trifluoromethyl)pyrimidin-5-yl]pyrrolo[2,1-f][1,2,4]triazin-7-yl}-1-[1-(2-fluorophenyl)-1H-1,2,3-triazol-4-yl]ethanol]	50.5	147		
CCC(c1cn(-c2ccccc2F)nn1)n1nc(-c2cnc(C(F)(F)F)nc2)c2c(N)ncnc21 (single isomer, unassigned) [Example 90, 1-{1-[1-(2-fluorophenyl)-1H-1,2,3-triazol-4-yl]propyl}-3-[2-(trifluoromethyl)pyrimidin-5-yl]-1H-pyrazolo[3,4-d]pyrimidin-4-amine]	31.8	31.5		

Continued by falling EC50 (F508del V470 CFTR), values first:

EC50 (F508del V470 CFTR) [nM]	EC50 (CFTR) [nM]	SMILES	improvement with monotherapy (F508del)	percent predicted FEV1 increased (G551D)
524	123	CCC(c1cn(-c2ccccc2F)nn1)c1cc(-c2cncnc2OC)c2c(N)ncnn12 (single isomer, unassigned) [Example 66, 7-{1-[1-(2-fluorophenyl)-1H-1,2,3-triazol-4-yl]propyl}-5-(4-methoxypyrimidin-5-yl)pyrrolo[2,1-f][1,2,4]triazin-4-amine]		
349	188	CCC(c1cn(-c2ccccc2)nn1)n1nc(-c2cnc(C(F)(F)F)nc2)c2c(N)ncnc21 (single isomer, unassigned) [Example 95, 1-[1-(1-phenyl-1H-1,2,3-triazol-4-yl)propyl]-3-[2-(trifluoromethyl)pyrimidin-5-yl]-1H-pyrazolo[3,4-d]pyrimidin-4-amine]		
78.8	31	CCC(c1cnn(-c2ccccc2F)c1)n1nc(-c2cnc(C(F)(F)F)nc2)c2c(N)ncnc21 (single isomer, unassigned) [Example 88, 1-{1-[1-(2-fluorophenyl)-1H-pyrazol-4-yl]propyl}-3-[2-(trifluoromethyl)pyrimidin-5-yl]-1H-pyrazolo[3,4-d]pyrimidin-4-amine]		
12.5	4	CC(c1cnn(-c2ccccc2F)c1)c1c(C#N)c(-c2cnc(C(F)(F)F)nc2)c2c(N)ncnn12 (single isomer, unassigned) [Example 12, 4-amino-7-{1-[1-(2-fluorophenyl)-1H-pyrazol-4-yl]ethyl}-5-[2-(trifluoromethyl)pyrimidin-5-yl]pyrrolo[2,1-f][1,2,4]triazine-6-carbonitrile]		
10.6	14.6	CC(c1cn(-c2ccc(F)cc2F)nn1)c1c(C#N)c(-c2cnc(C(F)(F)F)nc2)c2c(N)ncnn12 (single isomer, unassigned) [Example 3, 4-amino-7-{1-[1-(2,4-difluorophenyl)-1H-1,2,3-triazol-4-yl]ethyl}-5-[2-(trifluoromethyl)pyrimidin-5-yl]pyrrolo[2,1-f][1,2,4]triazine-6-carbonitrile]		
8.76	7.48	CC(c1cn(-c2ccc(F)cc2F)nn1)c1cc(-c2cnc(C(F)(F)F)nc2)c2c(N)ncnn12 (single isomer, unassigned) [Example 56, 7-{1-[1-(2,4-difluorophenyl)-1H-1,2,3-triazol-4-yl]ethyl}-5-[2-(trifluoromethyl)pyrimidin-5-yl]pyrrolo[2,1-f][1,2,4]triazin-4-amine]		
4.17	6.96	CCC(c1cnn(C(C)C)c1)c1c(C#N)c(-c2cnc(C(F)(F)F)nc2)c2c(N)ncnn12 (single isomer, unassigned) [Example 11, 4-amino-7-{1-[1-(propan-2-yl)-1H-pyrazol-4-yl]propyl}-5-[2-(trifluoromethyl)pyrimidin-5-yl]pyrrolo[2,1-f][1,2,4]triazine-6-carbonitrile]		
2.13	3.02	CCC(c1cn(-c2ccccc2F)nn1)c1c(C#N)c(-c2cnc(C(F)(F)F)nc2)c2c(N)ncnn12 (single isomer, unassigned) [Example 5, 4-amino-7-{1-[1-(2-fluorophenyl)-1H-1,2,3-triazol-4-yl]propyl}-5-[2-(trifluoromethyl)pyrimidin-5-yl]pyrrolo[2,1-f][1,2,4]triazine-6-carbonitrile]		
